Active and inactive are the calls of the source. The calls are words filed in the database; no cut-off is given here.
Experiments:
[1] = target: Tyrosine-protein kinase BTK (Homo sapiens, UniProt Q06187); assay: Inhibition of full length recombinant human N-terminal His tagged […] expressed in baculovirus infected Sf9 insect cells using poly (Glu,Tyr)4:1 as substrate pretreated for 60 mins followed by substrate addition after 1 hr by ADP-Glo luminescence assay
[2] = test system: SKM-1; assay: Growth inhibition of human SKM1 cells; assay type: functional
[3] = test system: MV4-11; assay: Growth inhibition of human MV411 cells; assay type: functional
[4] = Growth inhibition of human M07e cells; assay type: functional
[5] = test system: U2932; assay: Growth inhibition of human U2932 cells; assay type: functional
[6] = test system: Pfeiffer; assay: Cell cycle arrest in human Pfeiffer cells assessed as increase in accumulation at G0/G1 phase at 10 uM after 48 hrs by propidium iodide/RNase staining based flow cytometric method; assay type: functional
[7] = test system: PBMC; assay: Cytotoxicity against PBMC (unknwon origin); assay type: cell-based
[8] = test system: OCI-AML-3; assay: Growth inhibition of human OCI-AML3 cells; assay type: functional
[9] = test system: SU-DHL-2; assay: Growth inhibition of human SU-DHL-2 cells; assay type: functional
[10] = test system: U-937; assay: Growth inhibition of human U937 cells; assay type: functional
[11] = test system: NB-4; assay: Growth inhibition of human NB4 cells; assay type: functional
[12] = test system: U2932; assay: Cell cycle arrest in human U2932 cells assessed as increase in accumulation at G0/G1 phase at 10 uM after 48 hrs by propidium iodide/RNase staining based flow cytometric method; assay type: functional
[13] = test system: Ramos; assay: Growth inhibition of human Ramos cells; assay type: functional
[14] = test system: Pfeiffer; assay: Growth inhibition of human Pfeiffer cells; assay type: functional
[15] = target: Epidermal growth factor receptor (Homo sapiens, UniProt P00533); assay: Inhibition of recombinant human N-terminal GST-tagged wild-type EGFR (695 to end residues) expressed in baculovirus infected Sf9 insect cells using poly (Glu,Tyr)4:1 as substrate pretreated for 60 mins followed by substrate addition after 1 hr by ADP-Glo luminescence assay
[16] = target: T1, Tyrosine-protein kinase JAK3 (Homo sapiens, UniProt P52333); assay: Inhibition of recombinant human N-terminal GST-tagged JAK3 (781 to end residues) expressed in baculovirus infected Sf9 insect cells using poly (Glu,Tyr)4:1 as substrate pretreated for 60 mins followed by substrate addition after 1 hr by ADP-Glo luminescence assay
T1 sequence (P52333 whole entry): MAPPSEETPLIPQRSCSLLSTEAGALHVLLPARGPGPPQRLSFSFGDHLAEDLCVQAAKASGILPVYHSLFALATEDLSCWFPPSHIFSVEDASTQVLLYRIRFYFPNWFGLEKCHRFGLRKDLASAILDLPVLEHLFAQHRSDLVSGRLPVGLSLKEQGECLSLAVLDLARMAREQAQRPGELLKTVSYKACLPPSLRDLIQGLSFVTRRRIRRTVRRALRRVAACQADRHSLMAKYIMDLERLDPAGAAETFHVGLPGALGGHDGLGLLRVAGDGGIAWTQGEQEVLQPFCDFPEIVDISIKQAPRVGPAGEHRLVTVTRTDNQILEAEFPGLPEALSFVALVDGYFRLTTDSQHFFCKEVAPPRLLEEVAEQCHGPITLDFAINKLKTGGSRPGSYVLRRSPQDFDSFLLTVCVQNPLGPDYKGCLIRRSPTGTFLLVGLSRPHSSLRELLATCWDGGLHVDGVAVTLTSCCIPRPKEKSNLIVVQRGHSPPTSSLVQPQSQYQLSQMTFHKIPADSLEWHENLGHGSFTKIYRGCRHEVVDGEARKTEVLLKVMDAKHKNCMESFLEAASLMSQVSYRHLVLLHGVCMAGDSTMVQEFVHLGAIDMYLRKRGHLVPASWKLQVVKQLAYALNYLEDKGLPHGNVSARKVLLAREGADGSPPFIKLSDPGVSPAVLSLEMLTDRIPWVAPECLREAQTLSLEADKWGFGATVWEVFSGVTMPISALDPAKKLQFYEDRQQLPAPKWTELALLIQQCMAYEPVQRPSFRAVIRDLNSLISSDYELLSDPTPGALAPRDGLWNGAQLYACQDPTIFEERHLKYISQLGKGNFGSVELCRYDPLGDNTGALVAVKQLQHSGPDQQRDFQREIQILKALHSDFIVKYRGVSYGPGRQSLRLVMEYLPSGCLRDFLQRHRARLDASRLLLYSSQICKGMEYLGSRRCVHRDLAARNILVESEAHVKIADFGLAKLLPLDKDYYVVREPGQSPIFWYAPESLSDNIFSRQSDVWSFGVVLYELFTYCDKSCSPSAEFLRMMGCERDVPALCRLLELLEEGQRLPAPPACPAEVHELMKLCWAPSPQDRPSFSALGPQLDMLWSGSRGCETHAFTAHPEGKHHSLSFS

Tyrosine-protein kinase BTK, sequence (Q06187 whole entry): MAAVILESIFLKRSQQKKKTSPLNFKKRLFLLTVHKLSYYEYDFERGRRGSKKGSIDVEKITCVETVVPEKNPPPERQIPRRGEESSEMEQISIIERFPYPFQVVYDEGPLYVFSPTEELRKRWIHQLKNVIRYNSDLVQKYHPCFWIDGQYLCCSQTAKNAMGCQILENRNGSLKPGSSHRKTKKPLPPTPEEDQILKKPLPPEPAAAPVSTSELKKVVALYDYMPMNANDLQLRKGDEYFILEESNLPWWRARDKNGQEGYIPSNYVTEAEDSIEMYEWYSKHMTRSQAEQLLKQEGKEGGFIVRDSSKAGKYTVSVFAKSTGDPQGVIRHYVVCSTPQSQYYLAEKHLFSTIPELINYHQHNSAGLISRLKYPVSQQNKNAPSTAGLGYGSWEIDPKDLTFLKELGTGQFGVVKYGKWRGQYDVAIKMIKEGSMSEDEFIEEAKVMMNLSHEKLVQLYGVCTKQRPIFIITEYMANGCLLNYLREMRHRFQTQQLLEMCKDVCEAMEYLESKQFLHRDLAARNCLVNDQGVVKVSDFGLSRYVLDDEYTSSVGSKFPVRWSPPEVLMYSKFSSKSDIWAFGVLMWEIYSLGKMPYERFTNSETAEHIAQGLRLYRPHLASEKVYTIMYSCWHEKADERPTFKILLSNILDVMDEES
Epidermal growth factor receptor, sequence (P00533 whole entry): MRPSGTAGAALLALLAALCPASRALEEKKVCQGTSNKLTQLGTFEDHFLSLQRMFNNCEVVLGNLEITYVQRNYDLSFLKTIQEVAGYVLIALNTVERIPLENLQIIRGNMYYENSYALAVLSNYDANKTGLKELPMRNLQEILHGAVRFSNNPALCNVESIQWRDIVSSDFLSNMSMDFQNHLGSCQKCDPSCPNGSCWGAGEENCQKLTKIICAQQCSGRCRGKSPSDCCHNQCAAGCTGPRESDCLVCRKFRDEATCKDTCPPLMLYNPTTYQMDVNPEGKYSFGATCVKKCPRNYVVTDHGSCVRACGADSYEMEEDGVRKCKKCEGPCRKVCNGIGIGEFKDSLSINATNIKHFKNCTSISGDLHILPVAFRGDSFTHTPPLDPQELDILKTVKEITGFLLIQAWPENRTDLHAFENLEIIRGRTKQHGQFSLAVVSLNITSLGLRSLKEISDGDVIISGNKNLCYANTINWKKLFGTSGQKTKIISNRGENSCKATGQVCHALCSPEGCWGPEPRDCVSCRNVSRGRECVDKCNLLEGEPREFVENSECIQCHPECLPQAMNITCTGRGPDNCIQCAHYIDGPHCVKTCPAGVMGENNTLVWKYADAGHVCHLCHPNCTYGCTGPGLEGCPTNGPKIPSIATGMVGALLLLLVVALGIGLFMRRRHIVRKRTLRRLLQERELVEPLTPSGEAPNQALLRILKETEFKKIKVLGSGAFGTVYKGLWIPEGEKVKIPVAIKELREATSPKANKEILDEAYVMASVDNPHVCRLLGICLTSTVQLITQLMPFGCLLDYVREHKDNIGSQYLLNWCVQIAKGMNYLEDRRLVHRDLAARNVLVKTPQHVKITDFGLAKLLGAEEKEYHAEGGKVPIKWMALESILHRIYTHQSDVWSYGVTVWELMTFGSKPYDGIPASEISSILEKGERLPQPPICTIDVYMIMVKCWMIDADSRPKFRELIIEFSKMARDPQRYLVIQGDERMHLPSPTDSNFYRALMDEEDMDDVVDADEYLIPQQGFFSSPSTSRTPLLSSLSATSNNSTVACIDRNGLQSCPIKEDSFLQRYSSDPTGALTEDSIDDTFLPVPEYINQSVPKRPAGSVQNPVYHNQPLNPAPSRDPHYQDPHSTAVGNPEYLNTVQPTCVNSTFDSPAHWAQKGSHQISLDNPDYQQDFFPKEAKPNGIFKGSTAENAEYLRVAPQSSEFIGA

| SMILES | IC50 [1] [nM] | other results |
| --- | --- | --- |
| C=CC(=O)Nc1cc(Nc2cc(-c3cccc(NC(=O)c4ccc(C(C)(C)C)cc4)c3C)cn(C)c2=O)ccc1C(=O)NC1CC1 | 41 |  |
| C=CC(=O)NC1CCCC(Nc2cc(-c3cccc(NC(=O)c4ccc(N(C)C)cc4)c3C)cn(C)c2=O)C1 (centres undefined) | 2950 |  |
| C=CC(=O)NC1CCN(c2cc(-c3cccc(NC(=O)c4ccc(N(C)C)cc4)c3C)cn(C)c2=O)CC1 | > 10000 |  |
| C=CC(=O)Nc1cc(Nc2cc(-c3cccc(NC(=O)c4ccc(C(C)C)cc4)c3C)cn(C)c2=O)ccc1C(=O)N1CCOCC1 | 32 |  |
| C=CC(=O)Nc1cccc(Nc2cc(-c3cccc(NC(=O)c4ccc(C(C)(C)C)cc4)c3C)cn(C)c2=O)c1 | > 10000 |  |
| C=CC(=O)Nc1cc(Nc2cc(-c3cccc(NC(=O)c4cc(OC)c(OC)c(OC)c4)c3C)cn(C)c2=O)ccc1C(=O)N1CCOCC1 | 1430 |  |
| C=CC(=O)Nc1cc(Nc2cc(-c3cccc(NC(=O)c4ccc(N(C)C)cc4)c3C)cn(C)c2=O)ccc1C(=O)N1CCC(OC)CC1 | 596 |  |
| C=CC(=O)Nc1cc(Nc2cc(-c3cccc(NC(=O)c4ccc5c(c4)OCCO5)c3C)cn(C)c2=O)ccc1C(=O)N1CCOCC1 | 89 |  |
| C=CC(=O)N1CCC[C@@H](n2nc(-c3ccc(Oc4ccccc4)cc3)c3c(N)ncnc32)C1 [IBRUTINIB] |  | GI50 [2]: 3600 nM; GI50 [3]: 250 nM; GI50 [4]: 590 nM; GI50 [5]: 4400 nM; Activity [6]: Active; Activity [7]: Non-Toxic; GI50 [8]: 9200 nM; GI50 [9]: 640 nM; GI50 [10]: 2900 nM; GI50 [11]: 3000 nM; Activity [12]: Active; GI50 [13]: 3400 nM; GI50 [14]: 1600 nM |
| C=CC(=O)Nc1cc(Nc2cc(-c3cccc(NC(=O)c4ccccc4)c3C)cn(C)c2=O)ccc1C(=O)N1CCOCC1 | 3740 |  |
| C=CC(=O)Nc1cc(C(=O)N2CCOCC2)ccc1Nc1cc(-c2cccc(NC(=O)c3ccc(C(C)(C)C)cc3)c2C)cn(C)c1=O | 231 |  |
| C=CC(=O)Nc1cc(Nc2cc(-c3cccc(NC(=O)c4ccc(C(C)(C)C)cc4)c3C)cn(C)c2=O)ccc1C | 365 |  |
| C=CC(=O)Nc1cc(Nc2cc(-c3cccc(NC(=O)c4ccc(C)c(C(F)(F)F)c4)c3C)cn(C)c2=O)ccc1C(=O)N1CCOCC1 | 1260 |  |
| C=CC(=O)N1CCCC(Nc2cc(-c3cccc(NC(=O)c4ccc(N(C)C)cc4)c3C)cn(C)c2=O)C1 (centres undefined) | > 10000 |  |
| C=CC(=O)Nc1cc(Nc2cc(-c3cccc(NC(=O)c4ccc(OC)cc4)c3C)cn(C)c2=O)ccc1C(=O)N1CCOCC1 | 2610 |  |
| C=CC(=O)Nc1cc(Nc2cc(-c3cccc(NC(=O)c4ccc(N(C)C)cc4)c3C)cn(C)c2=O)ccc1C(=O)N1CCCC(O)C1 (centres undefined) | 244 |  |
| C=CC(=O)Nc1cc(Nc2cc(-c3cccc(NC(=O)c4ccc(N(C)C)cc4)c3C)cn(C)c2=O)ccc1C(=O)N1CCC(O)CC1 | 187 |  |
| C=CC(=O)Nc1cc(Nc2cc(-c3cccc(NC(=O)c4ccc(N5CCOCC5)cc4)c3C)cn(C)c2=O)ccc1C(=O)N1CCOCC1 | 273 |  |
| C=CC(=O)N1CCc2ccc(-n3c(=O)ccc4cnc5ccc(-c6cnn(C)c6)cc5c43)cc21 |  | IC50 [15]: 874 nM; IC50 [16]: 3340 nM |
| C=CC(=O)Nc1cc(Nc2cc(-c3cccc(NC(=O)c4ccc(C(F)(F)F)cc4)c3C)cn(C)c2=O)ccc1C(=O)N1CCOCC1 | 76 |  |
| C=CC(=O)Nc1cc(Nc2cc(-c3cccc(NC(=O)c4ccc(C)cc4)c3C)cn(C)c2=O)ccc1C(=O)N1CCOCC1 | 114 |  |

Reference: ChEMBL document CHEMBL4024706 (Eur J Med Chem, 2017)
